Laboratory results from PMC13198257, “An aerosolized dual-action autotaxin inhibitor-PPARγ agonist for the treatment of pulmonary fibrosis” (Cell Reports Medicine, 2026).

Experiments:
[1] = tested on: BLM-induced fibrotic mouse PCLSs; assay: Fibrotic mouse precision-cut lung slices (PCLS); assay type: cell-based; conditions: 30 μΜ, 72 h
Procedure: Fourteen days after administration, mice were euthanized and lungs were perfused with PBS. Lungs were subsequently inflated through the trachea with pre-warmed (40-42 °C) low melting-point agarose. Following agarose solidification, the left lateral lobe was excised and sectioned into 300μm-thick slices using a vibratome machine. Lung slices were placed in 12- or 24-well culture plates containing complete DMEM supplemented with 1% penicillin/streptomycin, and 0.1% amphotericin B, and maintained at 37 °C, 5% CO2 and ≥95% relative humidity. After an overnight equilibration period, slices were treated with either GLPG-1690 (30μM) or compound 5 (30μM) for 72 h. Culture medium was refreshed every 24 h throughout the treatment period. For downstream gene expression analysis, three slices were pooled per sample for RNA extraction. Control PCLS were generated from saline-treated mice. […] Fluorophore-conjugated secondary antibody (1:500) was applied for 1 h at room temperature, and nuclei were counterstained with DAPI. Brightfield and fluorescence imaging were performed using the Olympus VS200 slide scanner.

[2] = Fast-track PK of compound 5: plasma exposure after i.v., i.p., inhalation, per os; assay type: in vivo, mice; conditions: 30 mg/kg, 1 and 3 h post-dose, versus i.v.
[3] = PK of EL244: plasma and lung levels after i.p. or inhaled administration; assay type: in vivo, mice
type 2 diabetes model = assay: HFD/STZ type 2 diabetes model, oGTT; assay type: in vivo, C57bl/6 male mice; conditions: i.p. 50 mg/kg daily, final 2 weeks
Procedure: One-year old male mice were given a High-Fat Diet (D12492, Research Diets) for 10 weeks. During the sixth week of the HFD period, mice received three streptozotocin injections (40mg/kg). Control mice that were consuming a control diet (D12450Ji, Research Diets) received injections with the solvent of STZ, 50 mM sodium citrate buffer, pH 4.5. During the last two weeks of the HFD treatment, a subgroup of prediabetic mice was daily administered EL244 through intraperitoneal injections (50 mg/kg). Disease induction and EL244 efficacy were assessed using an Oral Glucose tolerance test (oGTT), as widely used.[64]^,[65]^,[66] 6-hr-fasted mice were administered a 10% glucose solution at 1 g/kg orally. Blood glucose levels were measured with a saccharometer before glucose administration and at 15, 30, 60, 90, and 120 min thereafter. Insulin resistance was assessed by the Area under curve (AUC) of the oGTT.

3T3-L1 = assay: Differentiation of 3T3-L1 fibroblasts into adipocytes; assay type: cell-based
Procedure: Adipogenic differentiation was carried out following a well-established protocol.[63]^,[142] Upon reaching approximately 70% confluence, cells were induced to differentiate (day 0) by replacing the culture medium with complete DMEM containing 10μg/mL insulin. Experimental groups received either EL244 (1μM or 10μΜ) or the standard adipogenic induction cocktail consisting of 1μM dexamethasone (DEX) and 0.5mM 3-isobutyl-1-methylxanthine (IBMX), as indicated. On day 3, the medium was replaced with complete DMEM supplemented with 10μg/mL insulin, with continued exposure to EL244 (1μM or 10μM) in the respective treatment groups. On day 6, the medium was refreshed with complete DMEM containing the corresponding concentrations of EL244.
Differentiated adipocytes were fixed with 10% formalin solution for 2 h, washed with 60% isopropanol, and stained with filtered 0.3% (w/v) Oil red O solution for 20 min. Following staining, cells were washed three times with dH2O to remove excess dye and observed using a bright-field microscope. Fow quantification, cells were destained with 100% isopropanol and lipid accumulation levels were quantified by Oil red O absorption at 500nm.

LPA levels = LPA levels in BALF and plasma of BLM mice after inhaled EL244 (MS/MS); assay type: in vivo
Procedure: Plasma (50μL), BALF (300 μL) or homogenized lung tissue (10–50 mg) were mixed with ice-cold PBS spiked with the internal standard mixture (LPA-d9, Cayman) in a glass tube (total final volume 1mL). 2 mL of ice-cold chloroform and 1 mL of methanol was added in each sample, following by vortexing for 1 min and then centrifugation at 4°C for 5 min at 4000 g. The lower transparent organic phase (chloroform phase-contains the neutral lipids) was collected in a glass tube. The remaining aqueous phase (upper phase) was left on ice for 10 min and acidified (pH 3–4) with Formic Acid 10% in water. Then 1.5 mL chloroform was added followed by thorough mixing for 1 min and centrifugation at 4°C for 5 min at 2000 g. The lower organic phase was collected and neutralized to pH 6–7. The neutralized organic phase from the acid extraction were evaporated to dryness. After evaporation we redissolve in water/methanol (1:9) with 0.1% formic acid and run in the mass spec. All MS quantitation lipid standards were purchased from Cayman unless otherwise mentioned. All LPA species analyzed in this study were quantified using the multiple reaction monitoring (MRM) scanning method on an Waters-QQQ mass spectrometer. All data were acquired and analyzed using the Waters data analysis software. The LC separation was achieved using a Gemini 5U C18 column (Phenomenex, 5 μm, 50 × 4.6 mm) coupled to a Gemini guard column (Phenomenex, 4 × 3 mm). The LC solvents were as follows: buffer A, 85% CAN, 5% MeOH +0.1% formic acid +10% 10 mM ammonium formate buffer pH5; buffer B, 95:5 (v/v) ACN/MeOH +0.1% formic acid. A typical LC-run was 35 min, with the following solvent run sequence post injection: 0.35 mL/min 5% B for 5 min, linear gradient of B from 0 to 95% over 25 min, and re-equilibration with 0.5 mL/min of 5% B for 5 min. […] All the endogenous lipid species were quantified by measuring the area under the curve in comparison to the respective internal standard, and then normalized to the total protein content of the […] tissue. The following table presents the MRM used for LPA quantification.

| SMILES | Col1a1 mRNA expression [1] | Fn1 mRNA expression [1] | Lung architecture, fibrotic lesions [1] | Plasma concentrations after i.p. and per os administration [2] | Plasma concentration ([3]; i.p. 30 mg/Kg, 3 h) | Clearance rate from the lung and absorption in the systemic circulation ([3]; inhaled 15 mg/kg) | Retention in the lung ([3]; inhaled 15 mg/kg) | concentration at 1 h ([3]; mouse, plasma, ip, i.p. 30 mg/Kg, 1 hour) | concentration at 9 h ([3]; mouse, plasma, ip, i.p. 30 mg/Kg, 9 h post-dose) | Glucose levels (type 2 diabetes model) | Insulin resistance (AUC of oGTT) (type 2 diabetes model) | PPARγ target gene expression in adipose and liver tissue (type 2 diabetes model) | Adipogenesis (oil red O lipid droplets) (3T3-L1; 1 or 10 μM with insulin, compared with IBMX/DEX) | Expression of PPARγ target genes (Adipoq, Fabp4, CD36) and PPARγ (3T3-L1; RT-qPCR) | LPA species in BALF (LPA levels) | Plasma LPA levels (LPA levels) | Total LPA content in BALFs (LPA levels) |
| --- | --- | --- | --- | --- | --- | --- | --- | --- | --- | --- | --- | --- | --- | --- | --- | --- | --- |
| O=C1NC(=O)C(Cc2ccc(OCCN3CCN(C(=O)OCc4cc(Cl)cc(Cl)c4)CC3)cc2)S1 (centres unmarked) [Compound 5, 3,5-dichlorobenzyl4-(2-(4-((2,4-dioxothiazolidin-5-yl)methyl)phenoxy)ethyl)piperazine-1-carboxylate] | decreasing | decreasing | improved the lung architecture | comparable to the respective i.v. concentrations | – | – | – | – | – | – | – | – | – | – | – | – | – |
| O=C1NC(=O)C(Cc2ccc(OCCC3CCN(C(=O)OCc4cc(Cl)cc(Cl)c4)CC3)cc2)S1 (centres unmarked) [EL244, 3,5-dichlorobenzyl 4-(2-(4-((2,4-dioxothiazolidin-5-yl)methyl)phenoxy)ethyl)piperidine-1-carboxylate] | – | – | – | – | ~35 μΜ | low | highly retained in the lung | 40 µM | 15 µM | lower glucose levels | decreased insulin resistance | stimulated the expression of several PPARγ target genes | promoted adipogenesis dose responsively | induced the expression of several PPARγ target genes | All LPA species, except for 18:0, were found to be reduced in the BALF | no modulation of plasma LPA levels was detected | found reduced |
